Data on four compounds can be found in US20110178174A1, “SALTS OF TRAMADOL AND IBUPROFEN AND THEIR CRYSTAL FORM IN THE TREATMENT OF PAIN” (LABORATORIOS DEL DR. ESTEVE, S.A., priority 2008, published 2011).

Data set [1] is described as follows: Thermogravimetric (TG) analysis, weight loss due to decomposition. It is filed as physicochemical. The conditions noted are these: heated at 10° C./min from 30 to 500° C., under nitrogen (80 mL/min). The protocol:
Thermogravimetric analyses were recorded in a Mettler Toledo SDTA851e. Samples of 3-4 mg were weighted into 40 μL aluminium crucibles with a pinhole lid, and heated at 10° C./min from 30 to 500° C., under nitrogen (80 mL/min).

The conditions of data set [2]: cited from earlier work.

In the case of `CC(C)Cc1ccc([C@H](C)C(=O)O)cc1.COc1cccc([C@]2(O)CCCC[C@H]2CN(C)C)c1` [(−)-tramadol-(S)-ibuprofen salt, Phase 1], the “TG analysis: weight loss beginning due to decomposition (temperature)” value (“TG analysis: weight loss beginning due” below) in data set [1] was 140 °C.
In the case of `CC(C)Cc1ccc([C@H](C)C(=O)O)cc1.COc1cccc([C@]2(O)CCCC[C@H]2CN(C)C)c1` [(−)-tramadol-(S)-ibuprofen salt, Phase 2, (−)-tramadol-(S)-ibuprofen Salt, Phase 2], in data set [1], the “TG analysis: weight loss beginning due” value was 130 °C.
Turning to `CC(C)Cc1ccc(C(C)C(=O)O)cc1` (stereo not shown) [ibuprofen, 2-[4-(2-methylpropyl)phenyl]propanoic acid], the “amount of ibuprofen that dissolves in 1 ml of water” value in data set [2] is recorded as “Less than 1 mg”.
Consider (+)-tramadol-(S)-ibuprofen salt, for which, in data set [1], the “TG analysis: weight loss beginning due” value was 130 °C.
